Results from patent US20240239788A1, “SMALL MOLECULE INHIBITORS OF KRAS G12D MUTANT” (Merck Sharp & Dohme LLC, priority 2021, published 2024).
Where a name gives a salt, the structure may show the parent alone. Read-outs that look alike come from different tables or passages of the source.

How the values were obtained:
[1] = tested on: AsPC-1 cells containing homozygous KRAS-G12D activating mutation; experiment: Cellular phospho-ERK assay with 10% FBS (Examples 107a-256); format: cell-based
Experimental: 5% CO2 for 2 hours. […] Assay plates were read on a EnVision Multimode Plate Reader (PerkinElmer) and the ratio of p-Erk vs total Erk in each well was used as the final readout.

[2] = molecular target: KRAS protein containing G12D mutation (Homo sapiens (Human), UniProt P01116, G12D); experiment: SOS-catalyzed nucleotide exchange assay (GNE), TR-FRET; format: biochemical; conditions: biotinylated KRAS G12D, SOS and GTP, 60-minute incubation
Experimental: Compounds are added to this complex and then after a 60-minute incubation time the mixture is treated with SOS and unlabeled GTP. Small molecule inhibitors stabilize the Bodipy-GDP complex whereas the untreated protein rapidly exchanges Bodipy-GDP for unlabeled GTP resulting in reduced TR-FRET signal.
This solution is referred to as biotinylated KRAS G12D stock solution.

[3] = read-out: IC50 (nM) pERK (cell with FBS 10%), AsPC-1 cells, 10% fetal bovine serum, 2 hours, ratio of p-Erk vs total Erk
[4] = Homo sapiens, ASPC1, 2 h, read-out: IC50 (nM) pERK (cell with FBS 10%), AsPC-1 cells, 10% fetal bovine serum, 2 hours, ratio of p-Erk vs total Erk

| Compound | IC50 [1, 3] | IC50 [2] | IC50 [1, 4] |
| --- | --- | --- | --- |
| 2,2,2-trifluoroacetaldehyde-6-(6-chloro-8-fluoro-2-(((2R,7aS)-2-fluorotetrahydro-1H-pyrrolizin-7a(5H)-yl)methoxy)-4-((1S,5R)-1-methyl-3,8-diazabicyclo[3.2.1]octan-3-yl)quinazolin-7-yl)-4-methyl-5-(trifluoromethyl)pyridin-2-amine (1/1) [Ex. 238b] | 21100 nM | 2710 nM |  |
| CC(Oc1nc(N2C[C@H]3CC[C@@](C)(C2)N3)c2cc(F)c(-c3cc(O)cc4cccc(Cl)c34)c(F)c2n1)[C@]1(C)CCCN1 (mixture of isomers) [Ex. 164, 5-chloro-4-(6,8-difluoro-4-((1S,5R)-1-methyl-3,8-diaza-bicyclo-[3.2.1]octan-3-yl)-2-(1-((S)-2-methyl-pyrrolidin-2-yl)ethoxy)-quinazolin-7-yl)naph-thalen-2-ol, TFA] |  | 562 nM | 29300 nM |
| C[C@]12CC[C@H](CN(c3nc(OCC45CNCC4C5)nc4c(F)c(-c5cc(O)cc6cccc(Cl)c56)c(F)cc34)C1)N2 (mixture of isomers) [Ex. 165, 4-(2-((3-azabicyclo-[3.1.0]hexan-1-yl)-methoxy)-6,8-difluoro-4-((1S,5R)-1-methyl-3,8-diazabicyclo[3.2.1]-octan-3-yl)quinazolin-7-yl)-5-chloronaph-thalen-2-ol, TFA] |  | 149 nM | 15400 nM |
| C[C@]12CCC(CN(c3nc(OC[C@@]45CCCN4C[C@H](F)C5)nc4c(F)c(-c5cc(O)cc6cccc(C(F)F)c56)c(F)cc34)C1)N2 (racemic) [Ex. 181a, rac-4-(6,8-difluoro-2-(((2R,7aS)-2-fluoro-tetrahydro-1H-pyrrol-izin-7a(5H)-yl)meth-oxy)-4-((18,5R)-1-methyl-3,8-diaza-bicyclo[3.2.1]octan-3-yl)quinazolin-7-yl)-5-(difluoromethyl)naph-thalen-2-ol] | 122 nM |  |  |
| C[C@]12CCC(CN(c3nc(OC[C@@]45CCCN4C[C@H](F)C5)nc4c(F)c(-c5cc(O)cc6cccc(C(F)F)c56)c(F)cc34)C1)N2 (racemic) [Ex. 181b, rac-4-(6,8-difluoro-2-(((2R,7aS)-2-fluoro-tetrahydro-1H-pyrrol-izin-7a(5H)-yl)meth-oxy)-4-((1S,5R)-1-methyl-3,8-diaza-bicyclo[3.2.1]octan-3-yl)quinazolin-7-yl)-5-(difluoromethyl)naph-thalen-2-ol] | 2660 nM |  |  |
| Cc1cc(N)nc(-c2c(Cl)cc3c(N4CC5CCC(C4)N5)nc(OC[C@@]45CCCN4[C@H](CO)CC5)nc3c2F)c1C(F)(F)F [Ex. 150] |  | 2.04 nM |  |
| C[C@]12CC[C@H](CN(c3nc(OC[C@@]45CCCN4C[C@H](F)C5)nc4c(F)c(-c5cc(F)cc6cccc(Cl)c56)c(F)cc34)C1)N2 [Ex. 158, 7-(8-chloro-3-fluoro-naphthalen-1-yl)-6,8-difluoro-2-(((2R,7aS)-2-fluorotetrahydro-1H-pyrrolizin-7a(5H)-yl)-methoxy)-4-((1S,5R)-1-methyl-3,8-diaza-bicyclo[3.2.1]octan-3-yl)quinazoline] |  | 1280 nM |  |
| CN1[C@@H]2CC[C@H]1CN(c1nc(OC[C@@]34CCCN3C[C@H](F)C4)nc3c(F)c(-c4cc(O)cc5cccc(Cl)c45)c(F)cc13)C2 [Ex. 161, 5-chloro-4-(6,8-difluoro-2-(((2R,7aS)-2-fluorotetrahydro-1H-pyrrolizin-7a(5H)-yl)-methoxy)-4-((1R,5S)-8-methyl-3,8-diaza-bicyclo[3.2.1]octan-3-yl)quinazolin-7-yl)-naphthalen-2-ol] |  | 591 nM |  |
| Cc1cc(-c2c(Cl)cc3c(N4C[C@H]5CC[C@@H](C4)N5)nc(OC[C@@]45CCCN4C[C@H](F)C5)nc3c2F)nc(N)c1OC(F)F [Ex. 168, 6-(4-((1R,5S)-3,8-diazabicyclo[3.2.1]-octan-3-yl)-6-chloro-8-fluoro-2-(((2R,7aS)-2-fluorotetrahydro-1H-pyrrolizin-7a(5H)-yl)-methoxy)quinazolin-7-yl)-3-(difluorometh-oxy)-4-methylpyridin-2-amine] |  | 1310 nM |  |
| Cc1nc(N)c(C)c(-c2c(F)cc3c(N4C[C@H]5CC[C@@H](C4)N5)nc(OC[C@@]45CCCN4C[C@H](F)C5)nc3c2F)c1C1CC1 [Ex. 198, 4-(4-((1R,5S)-3,8-diazabicyclo[3.2.1]-octan-3-yl)-6,8-difluoro-2-(((2R,7aS)-2-fluorotetrahydro-1H-pyrrolizin-7a(5H)-yl)-methoxy)quinazolin-7-yl)-5-cyclopropyl-3,6-dimethylpyridin-2-amine] |  | 1790 nM |  |
| C[C@]12CC[C@H](CN(c3nc(OC[C@@H]4CCCN4CCO)nc4c(F)c(-c5cc(O)cc6ccccc56)c(F)cc34)C1)N2 [Ex. 225, 4-(6,8-difluoro-2-(((S)-1-(2-hydroxyethyl)pyrrolidin-2-yl)methoxy)-4-((1S,5R)-1-methyl-3,8-diazabicyclo[3.2.1]octan-3-yl)quinazolin-7-yl)naphthalen-2-ol] |  | 69.8 nM |  |
| CN(CC(C)(C)O)CC1(COc2nc(N3C[C@H]4CC[C@@](C)(C3)N4)c3cc(F)c(-c4cc(O)cc5ccccc45)c(F)c3n2)CC1 [Ex. 226, 4-(6,8-difluoro-2-((1-(((2-hydroxy-2-methylpropyl)(methyl)amino)methyl)cyclopropyl)methoxy)-4-((1S,5R)-1-methyl-3,8-diazabicyclo[3.2.1]octan-3-yl)quinazolin-7-yl)naphthalen-2-ol] |  | 55.1 nM |  |
| NC1(COc2nc(N3CC4CCC(C3)N4)c3cc(Cl)c(-c4cc(O)cc5ccccc45)c(F)c3n2)CCC(O)C1 (stereo not shown) [Example 108, 4-(2-((1-amino-3-hydroxycyclopentyl)methoxy)-4-(3,8-diazabicyclo[3.2.1]octan-3-yl)-6-chloro-8-fluoroquinazolin-7-yl)naphthalen-2-ol, TFA] |  | 3280 nM |  |
| Oc1cc(-c2c(Cl)cc3c(N4CC5CCC(C4)N5)nc(OCC4CNC4)nc3c2F)c2ccccc2c1 [Example 109, 4-(2-(azetidin-3-ylmethoxy)-4-(3,8-diazabicyclo[3.2.1]octan-3-yl)-6-chloro-8-fluoroquinazolin-7-yl)naphthalen-2-ol, TFA] |  | 2680 nM |  |
| Oc1cc(-c2c(Cl)cc3c(N4CC5CCC(C4)N5)nc(OCC4(F)CNC4)nc3c2F)c2ccccc2c1 [Example 110, 4-(4-(3,8-diazabicyclo [3.2.1]octan-3-yl)-6-chloro-8-fluoro-2-((3-fluoroazetidin-3-yl)methoxy)quinazolin-7-yl)naphthalen-2-ol, TFA] |  | 770 nM |  |
| NC1(COc2nc(N3CC4CCC(C3)N4)c3cc(Cl)c(-c4cc(O)cc5ccccc45)c(F)c3n2)CCOC1 (stereo not shown) [Example 111, 4-(2-((3-amino-tetrahydrofuran-3-yl)methoxy)-4-(3,8-diazabicyclo[3.2.1]octan-3-yl)-6-chloro-8-fluoroquinazolin-7-yl) naphthalen-2-ol, TFA] |  | 2470 nM |  |
| NC1(COc2nc(N3CC4CCC(C3)N4)c3cc(Cl)c(-c4cc(O)cc5ccccc45)c(F)c3n2)CCCC1 [Example 112, 4-(2-((1-aminocyclo-pentyl)methoxy)-4-(3,8-diazabicyclo[3.2.1]octan-3-yl)-6-chloro-8-fluoroquinazolin-7-yl)naphthalen-2-ol, TFA] |  | 2730 nM |  |
| C[C@]12CC[C@H](CN(c3nc(OCC4(N)CCOC4)nc4c(F)c(-c5cc(O)cc6ccccc56)c(F)cc34)C1)N2 (stereo partly drawn) [Example 113, 4-(2-((3-amino-tetrahydrofuran-3-yl)methoxy)-6,8-difluoro-4-((1S,5R)-1-methyl-3,8-diazabicyclo [3.2.1]octan-3-yl)quinazolin-7-yl)naphthalen-2-ol, TFA] |  | 697 nM |  |
| C[C@]12CC[C@H](CN(c3nc(OCC4(N)CCC4)nc4c(F)c(-c5cc(O)cc6ccccc56)c(F)cc34)C1)N2 [Example 114, 4-(2-((1-aminocyclobutyl)methoxy)-6,8-difluoro-4-((1S,5R)-1-methyl-3,8-diazabicyclo[3.2.1]octan-3-yl)quinazolin-7-yl)naphthalen-2-ol, TFA] |  | 794 nM |  |
| C[C@]12CC[C@H](CN(c3nc(OC[C@H]4CCN(C5CCCCC5O)C4)nc4c(F)c(-c5cc(O)cc6ccccc56)c(Cl)cc34)C1)N2 (stereo partly drawn) [Example 120, 4-(6-chloro-8-fluoro-2-(((3S)-1-(2-hydroxy-cyclohexyl)pyrrolidin-3-yl)methoxy)-4-((1S,5R)-1-methyl-3,8-diazabicyclo [3.2.1]octan-3-yl)quinazolin-7-yl)naphthalen-2-ol, TFA] |  | 1440 nM |  |
| C#Cc1cccc2cc(O)cc(-c3c(F)cc4c(N5CC6(C)CCC(C)(C5)N6)nc(OC[C@@]56CCCN5C[C@H](F)C6)nc4c3F)c12 [Example 124, 4-(4-(1,5-dimethyl-3,8-diazabicyclo[3.2.1]octan-3-yl)-6,8-difluoro-2-(((2R,7aS)-2-fluorotetrahydro-1H-pyrrolizin-7a(5H)-yl)methoxy)quinazolin-7-yl)-5-ethynylnaphthalen-2-ol] |  | 1.21 nM |  |
| C#Cc1cccc2cc(O)cc(-c3c(F)cc4c(N5C[C@]6(C)CC[C@](F)(C5)N6)nc(OC[C@@]56CCCN5C[C@H](F)C6)nc4c3F)c12 [compound 240, 4-(6,8-difluoro-4-((18,5S)-1-fluoro-5-methyl-3,8-diazabicyclo[3.2.1]octan-3-yl)-2-(((2R,7aS)-2-fluorotetrahydro-1H-pyrrolizin-7a(5H)-yl)methoxy)quinazolin-7-yl)-5-ethynylnaphthalen-2-ol] |  | 135 nM |  |
